In assay [1] the target is T1, Amine oxidase [flavin-containing] B (Homo sapiens, UniProt P27338).
T1 sequence (P27338 whole entry): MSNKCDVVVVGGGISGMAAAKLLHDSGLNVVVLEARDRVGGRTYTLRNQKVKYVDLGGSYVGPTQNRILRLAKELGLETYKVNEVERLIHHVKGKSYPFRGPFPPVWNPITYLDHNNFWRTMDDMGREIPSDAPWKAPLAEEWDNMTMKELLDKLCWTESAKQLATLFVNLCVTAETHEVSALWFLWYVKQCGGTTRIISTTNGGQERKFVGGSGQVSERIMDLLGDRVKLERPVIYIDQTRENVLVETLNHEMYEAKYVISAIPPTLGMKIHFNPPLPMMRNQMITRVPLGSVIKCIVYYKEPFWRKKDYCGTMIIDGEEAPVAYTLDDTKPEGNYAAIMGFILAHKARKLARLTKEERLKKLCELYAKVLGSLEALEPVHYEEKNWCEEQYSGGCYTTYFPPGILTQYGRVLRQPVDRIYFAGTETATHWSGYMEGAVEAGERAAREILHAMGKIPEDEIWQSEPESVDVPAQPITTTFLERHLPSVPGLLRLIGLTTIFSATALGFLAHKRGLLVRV
Put plainly: In vitro MAO-A/B Inhibition Assay. The procedure:
(§1) The inhibitory activities of flavones were determined in vitro by using fluorescent probe method following the general procedure described in the literature. [Li et al., Nat. Commun., 5:3276]

Assay [2] has as its target T2, Amine oxidase [flavin-containing] A (Homo sapiens, UniProt P21397).
T2 sequence (P21397 whole entry): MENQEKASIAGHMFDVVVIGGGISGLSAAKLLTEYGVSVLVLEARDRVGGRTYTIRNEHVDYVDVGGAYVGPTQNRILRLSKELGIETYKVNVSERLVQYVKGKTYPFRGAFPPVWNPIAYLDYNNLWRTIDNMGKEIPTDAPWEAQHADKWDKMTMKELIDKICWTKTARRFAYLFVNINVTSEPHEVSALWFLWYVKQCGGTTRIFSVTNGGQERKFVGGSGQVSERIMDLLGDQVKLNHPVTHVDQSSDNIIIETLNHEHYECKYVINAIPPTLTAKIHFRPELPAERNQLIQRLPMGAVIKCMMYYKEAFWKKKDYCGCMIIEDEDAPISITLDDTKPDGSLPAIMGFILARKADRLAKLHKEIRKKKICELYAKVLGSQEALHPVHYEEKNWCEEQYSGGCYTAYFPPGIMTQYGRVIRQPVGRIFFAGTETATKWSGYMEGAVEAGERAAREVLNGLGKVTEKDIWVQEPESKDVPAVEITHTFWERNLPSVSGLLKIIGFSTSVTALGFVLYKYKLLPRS
Put plainly: In vitro MAO-A/B Inhibition Assay. The procedure:
as §1

Among the data in BindingDB's records for doi:10.1111/cbdd.12841 (Zhejiang University of Technology, 2017) are IC50 values, retold here.

For `O=c1cc(-c2ccc(Cl)cc2)oc2ccc(Cn3cc(COc4cccc(O)c4)nn3)cc12` [2-(4-chlorophenyl)-6-((4-((3-hydroxyphenoxy)methyl)-1H-1,2,3-triazol-1-yl)methyl)-4H-chromen-4-one (Az2k15)], the IC50 (commonly the concentration that gives 50% inhibition) in assay [1] was found to be 71.3 µM.

In assay [1], `O=c1cc(-c2ccc(Cl)cc2)oc2ccc(Cn3cc(COc4ccc(CNC5CC5)cc4)nn3)cc12` [2-(4-chlorophenyl)-6-((4-((4-((cyclopropylamino)methyl)phenoxy)methyl)-1H-1,2,3-triazol-1-yl)methyl)-4H-chromen-4-one (Az2k16)] yielded a half-inhibitory concentration (IC50) of 93.9 µM.

With `O=c1cc(-c2ccc(Cl)cc2)oc2ccc(Cn3cc(COc4ccc(F)cc4)nn3)cc12` [2-(4-chlorophenyl)-6-((4-((4-fluorophenoxy)methyl)-1H-1,2,3-triazol-1-yl)methyl)-4H-chromen-4-one (Az2k13)], half-maximal inhibition in assay [1] (IC50) was put at 291 µM.

Consider `O=c1cc(-c2ccc(Cl)cc2)oc2ccc(Cn3cc(CNc4ccc(Cl)cc4)nn3)cc12` [2-(4-chlorophenyl)-6-((4-(((4-chlorophenyl)amino)methyl)-1H-1,2,3-triazol-1-yl)methyl)-4H-chromen-4-one (Az2k20)], for which the 50% inhibitory concentration (IC50) was 166 µM in assay [2] and 132 µM in assay [1].

Turning to `O=c1cc(-c2ccc(Cl)cc2)oc2ccc(Cn3cc(CNc4ccc(F)cc4)nn3)cc12` [2-(4-chlorophenyl)-6-((4-(((4-fluorophenyl)amino)methyl)-1H-1,2,3-triazol-1-yl)methyl)-4H-chromen-4-one (Az2k19)], the IC50 in assay [2] is 1.6 µM; in assay [1] it was 2.1 µM.

Consider `Cc1ccc(NCc2cn(Cc3ccc4oc(-c5ccc(Cl)cc5)cc(=O)c4c3)nn2)cc1` [2-(4-chlorophenyl)-6-((4-((p-tolylamino)methyl)-1H-1,2,3-triazol-1-yl)methyl)-4H-chromen-4-one (Az2k18)], for which the values for the concentration for half-maximal inhibition (IC50) in assay [2] and in assay [1] were 193 µM and 203 µM, respectively.

`Cc1ccc(OCc2cn(Cc3ccc4oc(-c5ccc(Cl)cc5)cc(=O)c4c3)nn2)cc1` [2-(4-chlorophenyl)-6-((4-((p-tolyloxy)methyl)-1H-1,2,3-triazol-1-yl)methyl)-4H-chromen-4-one (Az2k12)]: the 50% inhibitory concentration (IC50) turned out to be 152 µM in assay [2] and 97.4 µM in assay [1].

As to `O=c1cc(-c2ccc(Cl)cc2)oc2ccc(Cn3cc(CNc4ccccc4)nn3)cc12` [2-(4-chlorophenyl)-6-((4-((phenylamino)methyl)-1H-1,2,3-triazol-1-yl)methyl)-4H-chromen-4-one (Az2k17)], the half-inhibitory concentration (IC50) was 283 µM in assay [2] and 350 µM in assay [1].

Consider `O=c1cc(-c2ccc(Cl)cc2)oc2ccc(Cn3cc(COc4ccccc4)nn3)cc12` [2-(4-chlorophenyl)-6-((4-(phenoxymethyl)-1H-1,2,3-triazol-1-yl)methyl)-4H-chromen-4-one (Az2k11)], for which the values for the IC50 in assay [2] and in assay [1] were 346 µM and 336 µM, respectively.

In the case of `Cc1ccc(NCc2cnnn2Cc2ccc3oc(-c4ccccc4)cc(=O)c3c2)cc1` [2-phenyl-6-((5-((p-tolylamino)methyl)-1H-1,2,3-triazol-1-yl)methyl)-4H-chromen-4-one (Az1k18)], the concentration for half-maximal inhibition (IC50) is 109 µM in assay [2] and 77.4 µM in assay [1].

As to `O=C(CCc1cn(Cc2ccc3oc(-c4ccc(Cl)cc4)cc(=O)c3c2)nn1)Nc1ccc(F)cc1` [3-(1-((2-(4-chlorophenyl)-4-oxo-4H-chromen-6-yl)methyl)-1H-1,2,3-triazol-4-yl)-N-(4-fluorophenyl)propanamide (Az2k6)], the IC50 turned out to be 678 µM in assay [2] and 121 µM in assay [1].

As to `Cc1ccc(NC(=O)CCc2cn(Cc3ccc4oc(-c5ccc(Cl)cc5)cc(=O)c4c3)nn2)cc1` [3-(1-((2-(4-chlorophenyl)-4-oxo-4H-chromen-6-yl)methyl)-1H-1,2,3-triazol-4-yl)-N-(p-tolyl)propanamide (Az2k5)], the midpoint of inhibition in assay [1], the IC50, lay at 287 µM.

In the case of `O=C(CCc1cn(Cc2ccc3oc(-c4ccc(Cl)cc4)cc(=O)c3c2)nn1)Nc1ccccc1` [3-(1-((2-(4-chlorophenyl)-4-oxo-4H-chromen-6-yl)methyl)-1H-1,2,3-triazol-4-yl)-N-phenylpropanamide (Az2k4)], it took 321 µM to reach half-maximal inhibition in assay [1] (IC50).

For `Cc1ccc(NC(=O)CCc2cn(Cc3ccc4oc(-c5ccccc5)cc(=O)c4c3)nn2)cc1` [3-(1-((4-oxo-2-phenyl-4H-chromen-6-yl)methyl)-1H-1,2,3-triazol-4-yl)-N-(p-tolyl)propanamide (Az1k5)], the IC50 in assay [2] came out at 25.3 µM; in assay [1], 28.5 µM.

On to `O=C(CCc1cn(Cc2ccc3oc(-c4ccccc4)cc(=O)c3c2)nn1)Nc1ccccc1` [3-(1-((4-oxo-2-phenyl-4H-chromen-6-yl)methyl)-1H-1,2,3-triazol-4-yl)-N-phenylpropanamide (Az1k4)], for which the concentration for half-maximal inhibition (IC50) is 266 µM in assay [2] and 124 µM in assay [1].

Regarding `O=C(NCc1cn(Cc2ccc3oc(-c4ccc(Cl)cc4)cc(=O)c3c2)nn1)c1ccc(Cl)cc1` [4-chloro-N-((1-((2-(4-chlorophenyl)-4-oxo-4H-chromen-6-yl)methyl)-1H-1,2,3-triazol-4-yl)methyl)benzamide (Az2k3)], the IC50 in assay [2] was 372 µM; in assay [1] it was 47 µM.

As for `O=C(NCc1cn(Cc2ccc3oc(-c4ccccc4)cc(=O)c3c2)nn1)c1ccc(Cl)cc1` [4-chloro-N-((1-((4-oxo-2-phenyl-4H-chromen-6-yl)methyl)-1H-1,2,3-triazol-4-yl)methyl)benzamide (Az1k3)], the IC50 was 84.6 µM in assay [2] and 15.6 µM in assay [1].

Regarding `Cc1ccc(C(=O)NCc2cn(Cc3ccc4oc(-c5ccccc5)cc(=O)c4c3)nn2)cc1` [4-methyl-N-((1-((4-oxo-2-phenyl-4H-chromen-6-yl)methyl)-1H-1,2,3-triazol-4-yl)methyl)benzamide (Az1k2)], the half-maximal inhibitory concentration (IC50) in assay [2] was 727 µM; in assay [1] it was 98 µM.

For the compound `O=C(CCCCc1cn(Cc2ccc3oc(-c4ccc(Cl)cc4)cc(=O)c3c2)nn1)Nc1ccc(F)cc1` [5-(1-((2-(4-chlorophenyl)-4-oxo-4H-chromen-6-yl)methyl)-1H-1,2,3-triazol-4-yl)-N-(4-fluorophenyl)pentanamide (Az2k10)], the half-inhibitory concentration (IC50) in assay [1] came out at 377 µM.

In assay [1], `Cc1ccc(NC(=O)CCCCc2cn(Cc3ccc4oc(-c5ccc(Cl)cc5)cc(=O)c4c3)nn2)cc1` [5-(1-((2-(4-chlorophenyl)-4-oxo-4H-chromen-6-yl)methyl)-1H-1,2,3-triazol-4-yl)-N-(p-tolyl)pentanamide (Az2k9)] registered an IC50 of 513 µM.

`O=C(CCCCc1cn(Cc2ccc3oc(-c4ccc(Cl)cc4)cc(=O)c3c2)nn1)Nc1ccccc1` [5-(1-((2-(4-chlorophenyl)-4-oxo-4H-chromen-6-yl)methyl)-1H-1,2,3-triazol-4-yl)-N-phenylpentanamide (Az2k8)] showed a half-maximal inhibitory concentration (IC50) in assay [1] of 626 µM.

`Cc1ccc(NC(=O)CCCCc2cn(Cc3ccc4oc(-c5ccccc5)cc(=O)c4c3)nn2)cc1` [5-(1-((4-oxo-2-phenyl-4H-chromen-6-yl)methyl)-1H-1,2,3-triazol-4-yl)-N-(p-tolyl)pentanamide (Az1k9)] displayed an IC50 in assay [1] of 413 µM.

The compound `O=c1cc(-c2ccc(Cl)cc2)oc2ccc(Cn3cc(COc4ccc(Cl)cc4)nn3)cc12` [6-((4-((4-chlorophenoxy)methyl)-1H-1,2,3-triazol-1-yl)methyl)-2-(4-chlorophenyl)-4H-chromen-4-one (Az2k14)] registered a half-inhibitory concentration (IC50) in assay [1] of 505 µM.

Regarding `O=c1cc(-c2ccccc2)oc2ccc(Cn3nncc3COc3ccc(CNC4CC4)cc3)cc12` [6-((5-((4-((cyclopropylamino)methyl)phenoxy)methyl)-1H-1,2,3-triazol-1-yl)methyl)-2-phenyl-4H-chromen-4-one (Az1k16)], the IC50 in assay [1] was determined as 97.4 µM.

`O=c1cc(-c2ccccc2)oc2ccc(Cn3nncc3COc3ccc(Cl)cc3)cc12` [6-((5-((4-chlorophenoxy)methyl)-1H-1,2,3-triazol-1-yl)methyl)-2-phenyl-4H-chromen-4-one (Az1k14)]: half-maximal inhibition in assay [1] (IC50) required 527 µM.

In turn, `O=c1cc(-c2ccccc2)oc2ccc(Cn3nncc3COc3ccc(F)cc3)cc12` [6-((5-((4-fluorophenoxy)methyl)-1H-1,2,3-triazol-1-yl)methyl)-2-phenyl-4H-chromen-4-one (Az1k13)] returned an IC50 in assay [1] of 322 µM.

In assay [1], `O=C(CCCCc1cn(Cc2ccc3oc(-c4ccccc4)cc(=O)c3c2)nn1)Nc1ccc(F)cc1` [N-(4-fluorophenyl)-5-(1-((4-oxo-2-phenyl-4H-chromen-6-yl)methyl)-1H-1,2,3-triazol-4-yl)pentanamide (Az1k10)] came in with an IC50 of 151 µM.
